From article PMC12271471, “Direct synthesis of mycophenolic acid aryl esters with antioxidant and antiproliferative properties” (Scientific Reports, 2025)

Experiments:
[1] = DPPH radical scavenging test (colorimetric); settings: concentration scavenging 50% of DPPH radicals; 10 min, room temperature, 517 nm; mean ± SD
Protocol: Antioxidative properties of the obtained MPA derivatives were assessed chemically using a colorimetric DPPH test. The IC50 value represents the scavenging activity, defined as the concentration of a compound required to scavenge 50% of DPPH radicals.
Briefly, 400 µL solution of each synthesized compound with different concentrations (20–1000 µg/mL) was added to 1.6 mL DPPH solution (100 µmol/L). After shaking, the mixture was incubated at room temperature in the dark for 10 min, and then the absorbance was measured at 517 nm. The %Scavenging activity was calculated by using the formula: […]
The scavenging activity was expressed as IC50 value, defined as the concentration (mM) of compound required for scavenging DPPH radicals by 50%. IC50 values were determined by linear regression analysis using at least three different concentrations in duplicate.
Three different concentrations were prepared for each sample, while each one was analyzed in duplicate. […] The statistical analysis was performed using Tukey’s HSD test (p < 0.05). The statistical software Statistica 10 software (StatSoft Inc., Tulsa, OK, USA) was implemented for this analysis.

[2] = test system: AsPC-1 cells (human pancreatic cancer cells); experiment: MTT cytotoxicity assay on AsPC-1 cell line; format: cell-based; settings: ASPC1, 72 h treatment, n = 3, mean ± SD
Protocol: Table 2 presents the concentration of the tested compounds, namely: P4, P7, MP9, MPA, MMF, and gemcitabine (GEM; a standard), which inhibited the proliferation of AsPC-1 cells (human pancreatic cancer cells) by 50% (expressed as IC50 values) compared to the control. Cells were treated with compounds for 72 h and then a colorimetric MTT assay was performed. A graphical representation of these values can be seen in ESI Fig. S1.
Biological evaluation — AsPC-1 cell line
AsPC-1 pancreatic cancer cells (purchased from the American Type Culture Collection, ATCC, Manassas, VA, USA) were maintained in RPMI 1640 medium (Sigma-Aldrich, St Louis, MO, USA), supplemented with heat-inactivated 10% fetal bovine serum (FBS; Biowest, Riverside, MO, USA), 100 µg/mL streptomycin, and 100 units/mL penicillin. Cells were incubated in a humidified atmosphere of 5% CO2 at 37°C. All experiments were performed on cells in a logarithmic growth phase.
To investigate the effect of the tested compounds on cell viability, a colorimetric analysis was performed using MTT (3-(4,5-Dimethyl-2-thiazolyl)-2,5-diphenyl-2H-tetrazolium bromide, Sigma-Aldrich, St Louis, MO, USA) based on the reduction of this yellow salt in metabolically active cells to purple formazan crystals. Cells were seeded onto 96-well plates at 2∙10^3 cells/well and after 24 h incubation for cell attachment, cells were treated with various concentrations of tested compounds and gemcitabine (positive control) up to 50 µM. After 72 hours of incubation, 20 µL MTT at a concentration of 4 mg/mL was added to each well for 3-4 hours. The culture medium was then aspirated and formazan crystals were dissolved in DMSO. The absorbance of the solutions was measured at 540 nm using an iMark Microplate Absorbance Reader (Bio-Rad, Hercules, CA, USA). The drug concentrations required to inhibit cell growth by 50% (IC50) compared to untreated control cells were determined from curves plotting survival as a function of dose. Results were obtained from at least three independent […]
Statistical analysis of MTT cytotoxicity assay results was performed using GraphPad Prism 5.0 by two-tailed unpaired Student’s t-test. Differences p < 0.05 between MPA and its derivatives and gemcitabine were considered statistically significant according to the following criteria: * p < 0.05, ** p <

[3] = test system: IMPDH (PBMC proliferation); experiment: GMP test: PBMC proliferation with or without guanosine source (IMPDH inhibition); format: cell-based, human; settings: for PBMC proliferation upon GMP addition (reversal of inhibition): with 50 µM GMP
Protocol: ESI Figure 4. Antiproliferative activity of MPA, MMF, and various esters of MPA in the presence of guanosine source — role of IMPDH inhibiton. VPD450-labeled human PBMCs, in the presence of different concentrations (50; 25; 10; 1, and 0.1 μM) of MPA, MMF, and esters, and stimulated (magnetic beads coated with anti-CD3 and anti-CD28 antibodies) were cultured with or without the addition of 50 μM GMP for 72 h. Cell proliferation was analyzed […]
(1 picture or pasted object on this page, not shown here) […]
inhibited cell viability by more than 50%. Each experiment was conducted in triplicate, and the final […]
VPD450 dye-based in vitro cell proliferation test
PBMCs and T-Jurkat cells were washed twice with warm PBS (37°C), re-suspended in fresh PBS at a final concentration of 10-30∙10^6 cells/ml, and labelled with 1 µl of VPD450 (BD Biosciences) at 37°C for 15 minutes, with vortexing every 5 minutes to ensure uniform staining. Subsequently, cells were washed with PBS, then with the complete medium (X-VIVO20 for PBMCs and RPMI-1640 for T-Jurkat cells), next re-suspended in fresh complete medium and seeded into 96-well plates at a concentration of 1∙10^6 cells per well. PBMCs were additionally stimulated with magnetic beads coated with anti-CD3 and anti-CD28 antibodies (Invitrogen) at a 2:1 cell-to-bead ratio. To the experimental wells, 100 µl of the MPA derivatives were added to achieve final concentrations of 50, 25, 10, 5, 1, 0.1, and 0.01 µM. In parallel, control wells containing stained but unstimulated cells and stained, stimulated cells were prepared at the same concentration. Cell proliferation was analyzed using an LSRFortessa flow cytometer (BD Biosciences) and Kaluza C Flow Cytometry Analysis Software (Beckman Coulter).
The data were expressed as EC50 values for compounds that inhibited more than 50% of cell […]
Enzyme inhibition in the presence of guanosine source (GMP test)
PBMCs were suspended in a 15 mL centrifuge tube at a concentration of 10-30 × 10⁶ cells in 1 mL of PBS, then, 2 μL of 1 mM VPD 450 dye solution was added, incubated for 15 min at 37°C, washed with a 9-fold volume of warm PBS and centrifuged at 400 x g for 5 min. Then, the cells were suspended in 10 mL of X-VIVO medium with 10% FBS and centrifuged again at 400 x g for 5 min. After suspending the cells in the complete medium, the staining level was checked using flow cytometry. The cells thus obtained were stimulated with anti-CD3/anti-CD28 antibodies as described previously (see VPD450 dye-based in vitro cell proliferation test). To perform the GMP test, a proper amount of GMP was added to each well to reach its final concentration of 50 μM, and then incubated for 72 hours. Proliferative activity was tested in the presence of various concentrations of compounds (50; 25; 10; 1 and 0.1 μM; MPA and selected amide derivatives) or without their addition. Cell proliferation was assessed using […]
Statistical analysis was conducted using GraphPad Prism 9 (GraphPad Software Inc).
Differences between MMF, MPA and its new derivatives were assessed using a two-tailed unpaired Student’s t-test, with statistical significance defined as p < 0.05. EC50 and IC50 values were determined by fitting data to a four-parameter non-linear regression model in GraphPad Prism 9. Statistical significance was evaluated using the t-test.

| Compound | IC50 [1] | IC50 [2] | further results |
| --- | --- | --- | --- |
| COc1cc(C=O)cc(OC)c1OC(=O)CC/C(C)=C/Cc1c(O)c2c(c(C)c1OC)COC2=O [MP3] | 12.2 ± 0.252 mM | – | – |
| COc1cccc(OC)c1OC(=O)CC/C(C)=C/Cc1c(O)c2c(c(C)c1OC)COC2=O [MP2] | 3.72 ± 0.23 mM | – | – |
| COC(=O)/C=C/c1ccccc1OC(=O)CC/C(C)=C/Cc1c(O)c2c(c(C)c1OC)COC2=O [P4] | 0.308 ± 0.031 mM | 0.00287 mM | PBMC proliferation upon GMP addition (reversal of inhibition) ([3]; 50 µM compound, 72 h): comparable pattern |
| COc1c(C)c2c(c(O)c1C/C=C(\C)CCC(=O)O)C(=O)OC2 [MPA, Mycophenolic acid] | 15.73 ± 0.144 mM | 0.00174 ± 0.000259 mM | Inhibition of PBMC proliferation ([3]; 50 µM): near-complete inhibition |
| C/C=C/c1ccc(OC(=O)CC/C(C)=C/Cc2c(O)c3c(c(C)c2OC)COC3=O)c(OC)c1 [MP9] | 0.373 ± 0.041 mM | 0.00381 mM | PBMC proliferation upon GMP addition (reversal of inhibition) ([3]; 50 µM compound, 72 h): comparable pattern |
| COc1cc(C=O)ccc1OC(=O)CC/C(C)=C/Cc1c(O)c2c(c(C)c1OC)COC2=O [MP4] | 6.4 ± 0.311 mM | – | – |
| C=CCc1ccc(OC(=O)CC/C(C)=C/Cc2c(O)c3c(c(C)c2OC)COC3=O)c(OC)c1 [MP8] | 6.9 ± 0.225 mM | – | – |
| COc1c(C)c2c(c(O)c1C/C=C(\C)CCC(=O)Oc1ccc(CCC(C)=O)cc1)C(=O)OC2 [P7] | 0.124 mM | 0.00245 mM | PBMC proliferation upon GMP addition (reversal of inhibition) ([3]; 50 µM compound, 72 h): comparable pattern |
| COC(=O)/C=C/c1ccc(OC(=O)CC/C(C)=C/Cc2c(O)c3c(c(C)c2OC)COC3=O)c(OC)c1 [MP7] | 3.64 ± 0.113 mM | – | – |

More lines, main results first:

| IC50 [1] | Compound | IC50 [2] | further results |
| --- | --- | --- | --- |
| 11.67 ± 0.113 mM | COc1c(C)c2c(c(O)c1C/C=C(\C)CCC(=O)Oc1cc(C)ccc1C(C)C)C(=O)OC2 [P2] | – | – |
| 23.8 ± 0.411 mM | COc1ccccc1OC(=O)CC/C(C)=C/Cc1c(O)c2c(c(C)c1OC)COC2=O [MP1] | – | – |
| 19 ± 0.279 mM | COc1c(C)c2c(c(O)c1C/C=C(\C)CCC(=O)OCCN1CCOCC1)C(=O)OC2 [MMF, mycophenolate mofetil, reference compound] | 0.00203 ± 4.2e-05 mM | Inhibition of PBMC proliferation ([3]; 50 µM compound, without GMP, 72 h): near-complete inhibition |
| 43.57 ± 0.38 mM | COc1c(C)c2c(c(O)c1C/C=C(\C)CCC(=O)Oc1ccc3c(c1)OCO3)C(=O)OC2 [P1] | – | PBMC proliferation upon GMP addition (reversal of inhibition) ([3]; 50 µM compound, 72 h): reversed; inhibition at 50 µM ([3]; Homo sapiens, PBMC, 50 µM compound, without GMP, 72 h): ~80% |
| 28.2 ± 0.357 mM | COc1c(C)c2c(c(O)c1C/C=C(\C)CCC(=O)Oc1ccc(C=O)cc1)C(=O)OC2 [P5] | – | – |
